Reference: ChEMBL document CHEMBL1141380 (J Med Chem, 2007)
In brackets after ≈: the same amount, converted by molar mass.

Experiments:
[1] = Clearance in iv dosed rat; format: ADME, organism-based; settings: in vivo
[2] = target: Vascular endothelial growth factor receptor 2 (Homo sapiens, UniProt P35968)
Description: Inhibition of KDR by HTRF assay

[3] = Solubility in 0.01N HCl; format: physicochemical
Angiopoietin-1 receptor [4] = target: T1, Angiopoietin-1 receptor (Homo sapiens, UniProt Q02763); assay: Inhibition of Tie2 by HTRF assay
Angiopoietin-1 receptor [5] = target: T1, Angiopoietin-1 receptor; assay: Inhibition of angiopoietin-1-stimulated Tie2 phosphorylation in EA.hy926 cells; format: functional, cell-based
[6] = Mean residence time in rat; format: ADME, organism-based; settings: in vivo

Sequence of Vascular endothelial growth factor receptor 2 (P35968 whole entry): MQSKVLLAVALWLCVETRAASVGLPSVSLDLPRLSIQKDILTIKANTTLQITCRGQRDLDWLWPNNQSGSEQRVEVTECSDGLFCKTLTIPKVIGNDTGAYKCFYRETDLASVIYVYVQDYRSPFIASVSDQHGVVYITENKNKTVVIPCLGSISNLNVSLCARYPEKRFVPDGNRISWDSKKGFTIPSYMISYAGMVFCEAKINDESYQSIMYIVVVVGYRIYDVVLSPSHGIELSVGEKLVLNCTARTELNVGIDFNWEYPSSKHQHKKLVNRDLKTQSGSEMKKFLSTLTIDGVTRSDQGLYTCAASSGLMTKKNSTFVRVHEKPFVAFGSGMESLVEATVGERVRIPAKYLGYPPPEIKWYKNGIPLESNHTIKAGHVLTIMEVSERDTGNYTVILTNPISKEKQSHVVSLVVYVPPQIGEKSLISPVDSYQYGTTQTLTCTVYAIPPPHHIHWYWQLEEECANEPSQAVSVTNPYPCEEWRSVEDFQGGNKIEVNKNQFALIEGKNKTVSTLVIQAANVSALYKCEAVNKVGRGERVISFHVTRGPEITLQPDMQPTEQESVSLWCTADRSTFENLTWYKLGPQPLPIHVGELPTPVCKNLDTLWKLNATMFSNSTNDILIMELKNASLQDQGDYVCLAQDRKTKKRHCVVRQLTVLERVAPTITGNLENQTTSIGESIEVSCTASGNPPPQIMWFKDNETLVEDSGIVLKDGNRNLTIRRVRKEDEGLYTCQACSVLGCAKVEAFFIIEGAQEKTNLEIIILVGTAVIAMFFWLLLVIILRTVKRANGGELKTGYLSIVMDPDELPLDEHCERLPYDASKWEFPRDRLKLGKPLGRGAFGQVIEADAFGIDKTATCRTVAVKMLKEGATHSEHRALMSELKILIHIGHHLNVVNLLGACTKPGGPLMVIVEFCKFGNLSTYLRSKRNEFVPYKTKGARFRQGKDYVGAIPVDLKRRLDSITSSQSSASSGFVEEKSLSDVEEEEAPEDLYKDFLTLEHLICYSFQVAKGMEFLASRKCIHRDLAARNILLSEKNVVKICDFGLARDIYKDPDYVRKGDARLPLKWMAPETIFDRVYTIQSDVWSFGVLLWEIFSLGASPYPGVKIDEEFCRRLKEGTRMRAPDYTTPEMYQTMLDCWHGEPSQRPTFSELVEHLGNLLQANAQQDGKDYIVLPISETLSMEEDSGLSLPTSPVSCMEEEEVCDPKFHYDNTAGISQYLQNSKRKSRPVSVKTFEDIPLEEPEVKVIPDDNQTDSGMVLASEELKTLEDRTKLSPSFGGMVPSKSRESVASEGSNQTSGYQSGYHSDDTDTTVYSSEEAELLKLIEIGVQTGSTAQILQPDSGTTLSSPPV
T1 sequence (Q02763 whole entry): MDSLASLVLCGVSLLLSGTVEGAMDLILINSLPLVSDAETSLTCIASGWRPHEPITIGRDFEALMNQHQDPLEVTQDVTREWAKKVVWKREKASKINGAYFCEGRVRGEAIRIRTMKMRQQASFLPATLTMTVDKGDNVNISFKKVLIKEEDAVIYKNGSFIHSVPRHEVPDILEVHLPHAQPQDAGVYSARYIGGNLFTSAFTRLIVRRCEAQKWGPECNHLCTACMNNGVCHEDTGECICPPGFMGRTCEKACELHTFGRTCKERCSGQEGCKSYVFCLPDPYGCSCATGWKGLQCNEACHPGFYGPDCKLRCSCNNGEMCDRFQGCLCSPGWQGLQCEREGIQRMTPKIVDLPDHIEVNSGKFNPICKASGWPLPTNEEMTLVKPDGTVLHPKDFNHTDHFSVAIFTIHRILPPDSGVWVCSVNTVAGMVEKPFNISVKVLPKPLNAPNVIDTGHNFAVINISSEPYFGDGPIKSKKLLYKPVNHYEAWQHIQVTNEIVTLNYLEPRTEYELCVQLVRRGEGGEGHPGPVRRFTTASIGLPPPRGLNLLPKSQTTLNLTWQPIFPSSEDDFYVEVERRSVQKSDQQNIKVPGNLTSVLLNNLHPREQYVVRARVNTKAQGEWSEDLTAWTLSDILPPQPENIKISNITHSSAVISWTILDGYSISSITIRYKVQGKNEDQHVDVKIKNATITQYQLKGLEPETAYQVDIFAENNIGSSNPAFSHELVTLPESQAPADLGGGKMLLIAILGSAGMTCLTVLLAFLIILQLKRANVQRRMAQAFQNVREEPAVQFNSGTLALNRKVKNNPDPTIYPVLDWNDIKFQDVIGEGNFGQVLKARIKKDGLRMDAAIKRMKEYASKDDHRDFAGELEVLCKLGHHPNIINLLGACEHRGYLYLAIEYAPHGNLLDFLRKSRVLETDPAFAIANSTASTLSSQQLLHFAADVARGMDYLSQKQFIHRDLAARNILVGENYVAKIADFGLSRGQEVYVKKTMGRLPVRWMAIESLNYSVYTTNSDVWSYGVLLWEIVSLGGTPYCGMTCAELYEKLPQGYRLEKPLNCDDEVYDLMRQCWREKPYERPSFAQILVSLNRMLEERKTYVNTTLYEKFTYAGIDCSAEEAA

SMILES | clearance [1] | IC50 [2] | solubility [3] | IC50 (Angiopoietin-1 receptor [4]) | IC50 (Angiopoietin-1 receptor [5]) | MRT [6]
CNc1cc(-c2cccnc2Oc2cc(C(=O)Nc3cc(C4CCCCC4)ccc3OC)ccc2C)ccn1 | 98.3 mL/min/kg | > 25 µM | – | – | – | –
COc1ccc(C2CCCCC2)cc1NC(=O)c1ccc(C)c(Oc2ncccc2-c2ncnc3cc(OC)c(OC)cc23)c1 | – | > 25 µM | – | > 25 µM | – | –
CNc1nccc(-c2cc(C)cnc2Oc2cccc(C(=O)Nc3cc(C(F)(F)F)ccc3N3CCCCC3)c2C)n1 | – | 2.6 µM | – | 0.388 µM | – | –
CNc1ncnc(-c2cccnc2Oc2ccc(F)c(C(=O)Nc3cc(C(C)C)ccc3N(C)CCCN(C)C)c2)n1 | 70 mL/min/kg | > 8 µM | – | – | – | –
CNc1nccc(-c2cccnc2Oc2cccc(C(=O)Nc3cc(C(F)(F)F)ccc3N3CCCCC3)c2)n1 | 54 mL/min/kg | > 8 µM | – | 0.099 µM | 0.368 µM | –
CNc1ncnc(-c2cccnc2Oc2cc(C(=O)Nc3cc(C(F)(F)F)ccc3N(C)CCCN(C)C)ccc2C)n1 | 15.3 mL/min/kg | 4 µM | – | 0.059 µM | 0.14 µM | –
CNc1ncnc(-c2cccnc2Oc2cc(C(=O)Nc3cc(C4CCCCC4)ccc3OC)ccc2C)n1 | 12.8 mL/min/kg | > 25 µM | – | 0.022 µM | 0.061 µM | 28.2 min
CNc1ncnc(-c2cccnc2Oc2ccc(F)c(C(=O)Nc3cc(C4CC4)ccc3N(C)CCCN(C)C)c2)n1 | 45.5 mL/min/kg | > 25 µM | – | 0.013 µM | 0.039 µM | –
O=C(Nc1ccc(Oc2ccccc2)cc1)c1cccnc1NCc1ccncc1 | – | – | – | ≥ 25 µM | – | –

The remaining lines, values ahead:

clearance [1] | IC50 [2] | solubility [3] | IC50 (Angiopoietin-1 receptor [4]) | IC50 (Angiopoietin-1 receptor [5]) | MRT [6] | SMILES
– | 0.705 µM | 5 µg/mL (≈ 11.1 µM) | – | – | – | Cc1ccc(C(=O)Nc2ccc(C(F)(F)F)cc2)cc1Oc1ncccc1-c1ccncn1
– | 0.31 µM | – | – | – | – | CNc1nccc(-c2cccnc2Oc2cc(C(=O)Nc3cc(C(F)(F)F)ccc3N3CCOCC3)ccc2C)n1
– | 0.1 µM | – | – | – | – | COc1ccc(C(F)(F)F)cc1NC(=O)c1ccc(C)c(Oc2ncccc2-c2ccncn2)c1
– | 0.097 µM | – | 0.01 µM | 0.038 µM | – | CNc1ncnc(-c2cccnc2Oc2cc(C(=O)Nc3cccc(C(F)(F)F)c3)ccc2C)n1
– | 0.058 µM | – | – | – | – | COc1ccc(C(F)(F)F)cc1NC(=O)c1ccc(C)c(Nc2ncccc2-c2ccncn2)c1
25.6 mL/min/kg | 2 µM | – | – | – | – | CNc1nccc(-c2cccnc2Oc2cc(C(=O)Nc3cc(C(F)(F)F)ccc3N3CCCCC3)ccc2F)n1
